Assays:
[1] = test system: transglutaminase 1 (TG1) in human keratinocytes; assay: Transglutaminase 1 (TG1) ELISA assay of keratinocyte differentiation, normalised to DNA, Example 2; assay type: cell-based; conditions: for inhibiting keratinocyte TG1 level when used alone, in words: 2.5×10^-7 M retinol or 10^-6 M lactamide-DEA alone, compared with retinoic acid 2.5×10^-7 M
Method: Human keratinocytes, isolated from neonatal foreskin by trypsin treatment were grown in Dulbecco Modification Eagle (DME) Hams F12 (1:1) medium/10% fetal calf serum in the presence of irradiated 3T3 mouse fibroblasts for establishing dividing keratinocyte colonies. Cells were grown under the above condition until their second passage and kept frozen for future use. Frozen second passage keratinocytes were thawed and plated into the above medium and grown for five days before they were switched to a serum-free MCDB 153-based medium keratinocyte growth medium (KGM) from Clonetics Corporation, San Diego, Calif. containing 0.15 mM Ca, or keratinocyte serum-free media (KSFM) from GIBCO containing 0.09 mM Ca). On day 7, when the cells were 80-90% confluent, they were trypsinized and plated in the serum-free medium for the various experiments.
(§1) During the process of terminal differentiation in the epidermis, a 15 nm thick layer of protein, known as the cornified envelope (CE) is formed on the inner surface of the cell periphery. The CE is composed of numerous distinct proteins which have been cross-linked together by the formation of N ^ε -(γ-glutamyl) lysine isodipeptide bonds catalyzed by the action of at least two different transglutaminases (TGases) expressed in the epidermis. TGase I is expressed in abundance in the differentiated layers of the epidermis, especially the granular layer, but is absent in the undifferentiated basal epidermis. Thus TGase I is a useful marker of epidermal keratinocyte differentiation with high TGase I levels indicating a more differentiated state. An ELISA based TGase I assay, using a TGase I antibody, was used to assess the state of differentiation of the cultured keratinocytes in the examples that follow.
Keratinocytes (cultured as described above) were plated in 96 well plates at a density of 3,000 cells per well in 200 μl of cell culture media. After incubation for four days, the media was changed to media containing test compounds (six replicates per test). The cells were cultured for a further 72 hours after which time the media was aspirated and the plates stored at -70° C. After the plates were removed from the freezer, the cells were further freezed fractured by freezing and thawing and then washed 3× with PBS. The cells were incubated for one hour at room temperature (R/T) with TBS/5% BSA buffer. Cells were then incubated with 100 μl of monoclonal anti-human transglutaminase (IgG) mouse antibody (primary antibody) obtained from Biomedical Technologies Inc. diluted 1:2000 in TBS/1% BSA buffer for two hours at 37° C., and then rinsed six times with wash buffer (TBS/1% BSA/0.05% Tween-20). Cells were next incubated with 100 μl of Fab fragment, peroxidase conjugated anti-mouse IgG antibody (secondary antibody) from Amersham diluted 1:4,000 in wash buffer for two hours at 37° C. and then rinsed three times with wash buffer and three times with PBS. Cells were incubated with substrate solution (4 mg o-phenylene diamine and 3.3 μl 30% H2 O2 in 1O ml 0.1M citrate buffer, pH 5.0) for five minutes at R/T and in darkness (under aluminum foil). The reaction was stopped by the addition of 50 μl 4N H2SO4. The absorbance of samples was read at 492 nm in the plate reader. Out of the six replicates, four were treated with both antibodies, two were treated only with the secondary antibody (i.e., to determine the background binding of the enzyme conjugated antibody). Transglutaminase I levels were determined by subtracted background from the readings from each treatment and determining the mean s.d. for the replicates exposed to both antibodies.
The level of TGase-1 detected after treatment of the cells could be influenced by cell number, i.e., the greater the number of cells the greater the level of TGase-1 detected. The level of TGase-1 was normalized to DNA content of the cells in the same well thus eliminating variation due to differences in cell number. […]

[2] = test system: Transglutaminase (TGase I) in human keratinocytes; assay: Transglutaminase (TGase I ELISA) assay of keratinocyte differentiation, normalized to DNA, Example 1; assay type: cell-based; conditions: 2.5×10^-7 M, 2.5×10^-8 M and 2.5×10^-9 M
Method: Human keratinocytes, isolated from neonatal foreskin by trypsin treatment were grown in Dulbecco Modification Eagle (DME) Hams F12 (1:1) medium/10% fetal calf serum in the presence of irradiated 3T3 mouse fibroblasts for establishing dividing keratinocyte colonies. Cells were grown under the above condition until their second passage and kept frozen for future use. […] On day 7, when the cells were 80-90% confluent, they were trypsinized and plated in the serum-free medium for the various experiments.
as §1, with “Thus TGase I is a useful marker of epidermal keratinocyte differentiation with high TGase I levels indicating a more differentiated state. An ELISA based TGase I assay, using a TGase I antibody, was used to assess the state of differentiation of the cultured keratinocytes in the examples that follow.” left out
Keratinocytes (cultured as described above) were plated in 96 well plates at a density of 3,000 cells per well in 200 μl media. […] The absorbance of samples was read at 492 nm in the plate reader. […] TGase levels were determined by subtracting background from the readings from each treatment and determining mean ±s.d. for the replicates exposed to both Ab.
The level of TGase-1 was normalized to DNA content of the cells in the same well thus eliminating variation due to differences in cell number. DNA quantitation is a particularly useful indicator of cell number, including keratinocyte cell number, because each cell has to all intents and purposes an identical genome and therefore an identical quantity of DNA The total DNA content of a well of cells therefore is directly proportional to the cell number in that well. Quantitation of DNA was used to normalize the TGase data to cell number. […]

[3] = Homo sapiens, Keratinocyte, Table 2A, 2.5 × 10^-8 M, 72 hour treatment, n = 3, read-out: TGase/DNA (% control)
[4] = Homo sapiens, Keratinocyte, Table 2B, 2.5 × 10^-7 M, 72 hour treatment, n = 3, read-out: TGase/DNA (% control)
[5] = Table 2A, 2.5 × 10^-8 M, 72 hour treatment, n = 3, control 18.42 ± 3.88
[6] = Table 2B, 2.5 × 10^-7 M, 72 hour treatment, n = 3, control 64.11 ± 2.91

Row | SMILES | inhibitory effect on keratinocyte TG1 level when used alone, in words ([1]; 10^-8 M, amide alone) | activity at 0.01 µM ([1]; Homo sapiens, Keratinocyte, Table 2A, 10^-8 M, 72 hour treatment, n = 3, read-out: TGase/DNA (% control)) | mean TGase/DNA × 10^5 ± s.d ([1]; Table 2A, 10^-8 M, 72 hour treatment, n = 3, control 18.42 ± 3.88) | decrease in transglutaminase level, dose dependence [2] | effect on keratinocyte differentiation (transglutaminase level), in words ([2]; vs ethanol control and corresponding retinol treatments) | effect on keratinocyte differentiation, in words (summary of Examples 1 and 2) [1] | activity at 0.025 µM [1, 3] | activity at 0.25 µM [1, 4] | mean TGase/DNA × 10^5 ± s.d [1, 5] | mean TGase/DNA × 10^5 ± s.d [1, 6] | inhibiting keratinocyte TG1 level when used alone, in words [1] | activity at 1 µM ([1]; Homo sapiens, Keratinocyte, Table 2B, 10^-6 M, 72 hour treatment, n = 3, read-out: TGase/DNA (% control)) | mean TGase/DNA × 10^5 ± s.d ([1]; Table 2B, 10^-6 M, 72 hour treatment, n = 3, control 64.11 ± 2.91)
1 | CCCCCCCCCCC(O)CC(N)=O (stereo not drawn) [C13-β-hydroxy-acid amide, C13 β-hydroxy acid amide] | no inhibitory effect | 101% | 18.53 ± 4.58 | – | – | – | – | – | – | – | – | – | –
2 | CC1=C(/C=C/C(C)=C/C=C/C(C)=C/C(=O)O)C(C)(C)CCC1 [Retinoic acid, retinoic acid] | – | – | – | dose dependent | decreased keratinocyte differentiation over both the ethanol control and did so to a significantly greater extent than each of the corresponding 2.5×10^-7 M, 2.5×10^-8 M and 2.5×10^-9 M retinol treatments | in a dose dependent manner, decreased keratinocyte differentiation | 6% | 73% | 1.05 ± 1.05 | 46.71 ± 7.83 | – | – | –
3 | CC1=C(/C=C/C(C)=C/C=C/C(C)=C/CO)C(C)(C)CCC1 [Retinol, retinol] | – | – | – | dose dependent | – | completely ineffective at decreasing keratinocyte differentiation | 79% | 91% | 14.62 ± 2.99 | 58.47 ± 6.25 | less effective | – | –
4 | CC(O)C(=O)NCCO (centres unmarked) [lactamide-MEA, lactamide monoethanolamide] | – | – | – | – | – | – | – | – | – | – | less effective | 86% | 55.22 ± 2.43
